Legend:
[1] = target: Cathepsin V (Homo sapiens (Human), UniProt O60911); assay: Cathepsin V IC50; assay type: biochemical
[2] = Plasma free fraction by equilibrium dialysis; assay type: in vitro ADME; conditions: mouse plasma; read-out: Binding Mouse Plasma fu,p
Text: Plasma fu,p: The free fraction of a compound in plasma preparation determined by in vitro equilibrium dialysis.

[3] = tested on: Eurofins CEREP SafetyScreen44 panel; assay: Eurofins CEREP SafetyScreen44 panel; assay type: binding
Text: Aside from selectivity over other DUB enzymes, it is important for a drug to have low affinity for other targets, and pharmacological profiling may be performed against panels of targets to assess the potential for, and to minimise, potential off-target effects. Examples of targets for which the compounds of the present invention may be screened against are those of the industry standard Eurofins-Cerep SafetyScreen44 panel, which includes 44 targets as a representative selection of GPCR receptors, transporters, ion channels, nuclear receptors, and kinase and non-kinase enzymes. Preferably, compounds of the invention have insignificant affinity against targets of this screening panel. Further examples of targets for which the compounds of the present invention may be screened against are kinases of the Thermo Fisher SelectScreen kinase profiling panel, which includes 39 targets as a representative selection of kinase enzymes. Preferably, compounds of the invention have insignificant affinity against targets of this screening panel. Additionally, examples of a particular enzyme class for which the compounds of the present invention may be screened against are the cathepsins (e.g. cathepsin A, B, C, H, K, L, L2, S, V and Z). Preferably, compounds of the invention have good selectivity for USP30 over one or more of these enzymes. […]

[4] = tested on: P-glycoprotein (MDR1), human; assay: MDR1-MDCK flux assay; assay type: in vitro ADME; conditions: dog, read-out: MDR1-MDCK Effective Efflux Ratio
Text: The treatment of CNS disorders, including Alzheimer’s disease, Parkinson’s disease, and other disorders described herein, requires drug molecules to target the brain, which requires adequate penetration of the blood brain barrier. […] The probability that a compound can cross the blood brain barrier may be measured by an in vitro flux assay utilizing a MDR1-MDCK cell monolayer (Madin-Darby Canine Kidney cells transfected with MDR-1 resulting in overexpression of the human efflux transporter P-glycoprotein). Additionally, exposure may also be measured directly in brain and plasma using in vivo animal models.
MDR1-MDCK (Madin-Darby Canine Kidney cell monolayer) (in vitro) flux assay.

[5] = WT-MDCK in vitro flux; assay type: in vitro ADME; conditions: dog
Text: WT-MDCK (wild-type) in vitro flux.

[6] = target: hERG potassium channel (Homo sapiens (Human), UniProt Q12809); assay: hERG potassium channel current in CHO cells; assay type: cell-based; conditions: 30 µM, stably expressed CHO cells
Sequence of hERG potassium channel (Q12809 whole entry): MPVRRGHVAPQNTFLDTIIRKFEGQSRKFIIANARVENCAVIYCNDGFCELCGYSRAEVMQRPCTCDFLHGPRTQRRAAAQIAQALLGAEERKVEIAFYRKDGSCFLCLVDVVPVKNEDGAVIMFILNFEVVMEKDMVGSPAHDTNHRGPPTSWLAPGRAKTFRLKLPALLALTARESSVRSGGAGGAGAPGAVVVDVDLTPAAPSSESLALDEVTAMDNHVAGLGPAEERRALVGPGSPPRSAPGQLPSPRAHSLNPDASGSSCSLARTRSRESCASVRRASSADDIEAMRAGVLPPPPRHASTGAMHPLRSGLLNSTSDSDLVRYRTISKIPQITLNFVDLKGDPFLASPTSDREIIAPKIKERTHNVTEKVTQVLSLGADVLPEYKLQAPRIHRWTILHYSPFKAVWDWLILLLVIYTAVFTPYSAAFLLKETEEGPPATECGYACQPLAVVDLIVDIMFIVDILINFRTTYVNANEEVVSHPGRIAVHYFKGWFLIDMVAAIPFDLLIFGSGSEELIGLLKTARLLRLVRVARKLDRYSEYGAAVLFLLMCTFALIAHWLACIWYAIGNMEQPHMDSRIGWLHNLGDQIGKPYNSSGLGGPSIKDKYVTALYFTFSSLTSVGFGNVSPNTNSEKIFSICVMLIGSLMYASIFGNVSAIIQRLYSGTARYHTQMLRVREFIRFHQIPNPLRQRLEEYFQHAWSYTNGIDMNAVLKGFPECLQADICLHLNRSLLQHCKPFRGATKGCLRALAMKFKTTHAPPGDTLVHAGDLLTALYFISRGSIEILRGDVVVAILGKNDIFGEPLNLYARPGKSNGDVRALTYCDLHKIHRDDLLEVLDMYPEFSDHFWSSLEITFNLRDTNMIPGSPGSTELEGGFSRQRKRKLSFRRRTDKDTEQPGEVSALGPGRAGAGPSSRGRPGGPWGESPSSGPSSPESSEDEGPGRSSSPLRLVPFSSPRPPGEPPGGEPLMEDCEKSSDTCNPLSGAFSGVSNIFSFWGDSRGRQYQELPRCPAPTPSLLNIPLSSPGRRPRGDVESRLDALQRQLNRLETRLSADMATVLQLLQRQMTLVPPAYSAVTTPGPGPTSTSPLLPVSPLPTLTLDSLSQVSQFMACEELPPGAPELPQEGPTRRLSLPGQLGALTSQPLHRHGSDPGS
Experimental: The hERG predictor assay provides valuable information about the possible binding of test compounds to the potassium channel and potential QT prolongation on […]. Inhibition of the hERG current causes QT interval prolongation resulting in potentially fatal ventricular tachyarrhythmia (Torsades de Pointes). Typically, assay data may be generated from an automated patch-clamp assay platform.
Example 2 was evaluated for effects on the hERG potassium channel, in stably expressed CHO cells at concentrations between 0.01 and 30 µM. Example 2 produced maximum inhibition value of 35% of the hERG current amplitude at 30 µM indicating little propensity for affecting the QT interval.

[7] = tested on: Salmonella typhimurium strains TA98, TA100, TA1535 and TA97a and the Escherichia Coli strain WP2 uvrA pKM101; assay: Bacterial reverse mutation assay (Ames); assay type: cell-based; conditions: up to 5000 µg/plate with and without metabolic activation
Experimental: The bacterial reverse mutation assay (Ames Test) may be used to evaluate the mutagenic properties of compounds of the invention, commonly by using the bacterial strain Salmonella typhimurium, which is mutant for the biosynthesis of the amino acid histidine.
(§1) Example 2 was assessed in the bacterial reverse mutation assay (Ames) and in vitro micronucleus assay. All in vitro tests were conducted with and without exogenous metabolic activation using concentrations up to those limited by cytotoxicity or insolubility.

[8] = tested on: TK6 cells; assay: In vitro micronucleus assay; assay type: cell-based; conditions: 27 hours recovery
Experimental: The micronucleus assay may be used to determine if a compound is genotoxic by evaluating the presence of micronuclei. Micronuclei may contain chromosome fragments produced from DNA breakage (clastogens) or whole chromosomes produced by disruption of the mitotic apparatus (aneugens).
as §1
Induction of chromosome damage was assessed using the in vitro micronucleus assay in TK6 cells. Example 2 was negative for induction of micronuclei when incubated for 3 hours in the presence of exogenous metabolic activation followed by 27 hours recovery, and also when incubated for 27 hours in the absence of exogenous metabolic activation followed by 27 hours recovery.

Sequence of Cathepsin V (O60911 114-334, species assumed): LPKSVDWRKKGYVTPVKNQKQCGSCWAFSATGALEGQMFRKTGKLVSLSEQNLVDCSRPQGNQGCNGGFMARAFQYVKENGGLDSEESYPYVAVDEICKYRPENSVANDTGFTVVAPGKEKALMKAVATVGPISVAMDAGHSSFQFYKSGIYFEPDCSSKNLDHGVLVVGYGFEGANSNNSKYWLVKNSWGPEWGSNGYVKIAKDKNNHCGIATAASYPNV

| Structure (SMILES) | IC50 [1] [µM] | fraction unbound [2] | affinity for targets in this assay [3] | efflux ratio [4] | efflux ratio [5] | Papp A→B ([5]; A-B) [×10⁻⁶ cm/s] | maximum inhibition of the hERG current amplitude [6] [%] | induction of mutations in reverse mutation assay [7] | induction of micronuclei ([8]; 3 hours in the presence of exogenous metabolic activation) | induction of micronuclei ([8]; 27 hours in the absence of exogenous metabolic activation) |
| --- | --- | --- | --- | --- | --- | --- | --- | --- | --- | --- |
| C[C@@H]1C[C@@H](NC(=O)c2ncc(-c3cc(C#N)ccc3OC3CC3)o2)CN1C#N [Example 1, 5-(5-cyano-2-cyclopropoxyphenyl)-N-((3R,5R)-1-cyano-5-methylpyrrolidin-3-yl)oxazole-2-carboxamide] | 30.9 | 0.09 | low affinity |  |  |  |  |  |  |  |
| COC[C@@H]1C[C@@H](NC(=O)c2ncc(-c3cc(C#N)ccc3OC3CC3)o2)CN1C#N [Example 2, 5-(5-cyano-2-cyclopropoxyphenyl)-N-((3R,5S)-1-cyano-5-(methoxymethyl)pyrrolidin-3-yl)oxazole-2-carboxamide] | 60.6 | 0.07 |  | 15 | 0.7 | 10.7 | 35 | did not induce mutations | negative | negative |
